Measurements reported in ChEMBL document CHEMBL4665710, “Myrcaulones A-C, Unusual Rearranged Triketone-Terpene Adducts from Myrciariacauliflora” (J Nat Prod, 2020).
Activity calls are given as the source filed them. The rule behind the calls is not given here.

Experiments:
RAW264.7 [1] = assay: Anti-inflammatory activity in mouse RAW 264.7 cells assessed as reduction in LPS-induced TNF-alpha production at 7 uM preincubated for 2 hrs followed by LPS-stimulation measured after 24 hrs by ELISA; assay type: functional, cell-based; details: time 26.0 hrs
RAW264.7 [2] = assay: Anti-inflammatory activity in mouse RAW 264.7 cells assessed as reduction in LPS-induced TNF-alpha production preincubated for 2 hrs followed by LPS-stimulation measured after 24 hrs by ELISA; assay type: functional, cell-based; details: time 26.0 hrs
RAW264.7 [3] = assay: Anti-inflammatory activity in mouse RAW 264.7 cells assessed as reduction in LPS-induced nitric oxide production preincubated for 2 hrs followed by LPS-stimulation measured after 24 hrs by Griess reagent method; assay type: functional, cell-based; details: time 26.0 hrs
RAW264.7 [4] = assay: Cytotoxicity against mouse RAW 264.7 cells assessed as reduction in cell viability by MTT assay; assay type: cell-based
RAW264.7 [5] = assay: Anti-inflammatory activity in mouse RAW 264.7 cells assessed as reduction in LPS-induced nitric oxide production at 7 uM preincubated for 2 hrs followed by LPS-stimulation measured after 24 hrs by Griess reagent method; assay type: functional, cell-based; details: time 26.0 hrs

CO[C@@]1(C(C)=O)CC2=C(C1=O)[C@H](C(C)C)C[C@@]1(CC[C@H]3C[C@@H]1C3(C)C)O2
Activity (RAW264.7 [1]): Active | Activity (RAW264.7 [2]): Dose-dependent effect | Activity (RAW264.7 [3]): Dose-dependent effect | Activity (RAW264.7 [4]): Non-Toxic | Activity (RAW264.7 [5]): Active

CC[C@H](C)[C@H]1C[C@@]2(CC[C@H]3C[C@@H]2C3(C)C)OC2=C1C(=O)[C@](OC)(C(C)=O)C2
Activity (RAW264.7 [1]): Active | Activity (RAW264.7 [2]): Dose-dependent effect | Activity (RAW264.7 [3]): Dose-dependent effect | Activity (RAW264.7 [4]): Non-Toxic | Activity (RAW264.7 [5]): Active
